Reference: patent US10413529B2, “Methods of inhibiting cataracts and presbyopia” (UNIVERSITY OF MASSACHUSETTS, priority 2013, dated 2019)

Assays:
γD-crystallin = target: T1, γD-crystallin (Homo sapiens, UniProt P07320); experiment: Dynamic light scattering (DLS) of γD-crystallin, hydrodynamic radius of monomer and aggregate; assay type: biochemical; settings: for Rhf / Rhs: γD; for Rhf: fast mode; for Rh: γD modified with the agent
T1 construct: 6xHis (N); made in house; host or cells: M15pRep E. coli (pQe1 plasmid from King Labs, MIT)
T1 sequence (P07320 1-174): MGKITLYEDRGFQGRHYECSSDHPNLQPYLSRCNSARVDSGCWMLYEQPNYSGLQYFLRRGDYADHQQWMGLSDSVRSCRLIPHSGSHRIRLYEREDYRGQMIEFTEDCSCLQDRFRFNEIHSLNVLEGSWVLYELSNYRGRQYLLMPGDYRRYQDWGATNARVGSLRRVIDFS
Description: (§1) The scattering wave vector is defined as q=4πn sin (θ/2)/λ, where θ is the scattering angle, and λ=514.5, the wavelength of the argon laser in vacuum, and n is 1.33, the refractive index of water. The temperature of the sample was held at constant temperature of 4 to 37±0.1° C. by a circulating water bath. The correlation function was analyzed using CONTIN analysis [NT] times for the correlation functions at measured angles. […] The delay times (τ) were converted to Γ and graphed versus q^2. The slope of the fitted line is the diffusion coefficient (D). […] All solutions were filtered with 0.22 μm hydrophobic PVDF membranes (Fisher Scientific) into 10 mm diameter borosilicate glass tubes and sealed. Solutions were allowed to equilibrate for thirty minutes prior to measuring light scattering. […] The pH and salt concentration were adjusted via overnight dialysis at 4° C. and their final concentration adjusted to 1.0 g/L. […] The scattering wave vector is defined as q=4πn sin (θ/2)/λ, where θ is the scattering angle, and λ=514.5, the wavelength of the argon laser in vacuum, and n is 1.33, the refractive index of water. The temperature of the sample was held at constant temperature of 4 to 37±0.1° C. by a circulating water bath. The correlation function was analyzed using CONTIN analysis [NT] times for the correlation functions at measured angles. […] The delay times (τ) were converted to Γ and graphed versus q^2. The slope of the fitted line is the diffusion coefficient (D). […] All solutions were filtered with 0.22 μm hydrophobic PVDF membranes (Fisher Scientific) into 10 mm diameter borosilicate glass tubes and sealed. Solutions were allowed to equilibrate for thirty minutes prior to measuring light scattering.

γS-crystallin = target: T2, γS-crystallin (Homo sapiens, UniProt P22914); experiment: Dynamic light scattering (DLS) of γS-crystallin, hydrodynamic radius of monomer and aggregate; assay type: biochemical; settings: for Rhf / Rhs: γS; for Rhf: fast mode; for Rh: γS modified with the agent
T2 construct: 6xHis (N); made in house; host or cells: M15pRep E. coli (pQe1 plasmid from King Labs, MIT)
T2 sequence (P22914 1-178): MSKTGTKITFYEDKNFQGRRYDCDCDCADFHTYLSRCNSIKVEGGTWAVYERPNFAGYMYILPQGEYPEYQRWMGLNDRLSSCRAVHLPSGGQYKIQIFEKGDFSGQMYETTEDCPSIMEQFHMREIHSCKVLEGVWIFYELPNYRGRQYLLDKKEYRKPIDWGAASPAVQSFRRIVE
Description: as §1

γ-crystallin [1] = experiment: DLS, aggregation of γ-crystallin (stated for γD and γS together); assay type: biochemical; settings: for aggregation of γ-crystallin modified with the agent (DLS): dilute solution, 22° and 37° C.; for effect on the large γ-crystallin aggregate: α-crystallin mixed with γD- or γS-crystallin, molar ratio 3:1, one hour at 4° C.
Description: (§2) Scattering intensity was measured at angles between 30° and 90° at 5° intervals, corresponding to a scattering wave vector (q) range between 8.41×10^6 and 2.30×10^7 m^−1. The scattering wave vector is defined as q=4πn sin (θ/2)/λ, where θ is the scattering angle, and λ=514.5, the wavelength of the argon laser in vacuum, and n is 1.33, the refractive index of water. The temperature of the sample was held at constant temperature of 4 to 37±0.1° C. by a circulating water bath.
(§3) The correlation function was analyzed using CONTIN analysis to calculate lag times for the correlation functions at measured angles. The peaks represent the diffusive mode of the proteins. The delay times (τ) were converted to Γ and graphed versus q^2. The slope of the fitted line is the diffusion coefficient (D). The lines are fitted such that the intercept is zero because a non-zero value of q=0 is unphysical. The Γ versus q^2 plots were linear with r^2 values of 0.95 or greater.
(§4) All solutions were filtered with 0.22 μm hydrophobic PVDF membranes (Fisher Scientific) into 10 mm diameter borosilicate glass tubes and sealed. Solutions were allowed to equilibrate for thirty minutes prior to measuring light scattering.
γ-crystallins were subjected to a variety of experimental conditions, including a range of pHs (5, 6, 7, 8, 9, 10, 11), concentrations of KCl (100 mM, 150 mM, 300 mM, 500 mM, 1000 mM) and temperature (4.5° C., 22° C., 37° C.). The pH and salt concentration were adjusted via overnight dialysis at 4° C. and their final concentration adjusted to 1.0 g/L.
It had been hypothesized that disulfide bonds might mediate the observed γ-crystallin aggregates. The DLS of the γ-crystallin proteins was also measured in 5 mM DTT, and in the presence of 1.0 g/L α-crystallin. […] Thus, this hypothesis was incorrect.
Further, the synthesized α-crystallin proteins were mixed with γ-crystallin proteins to determine if the chaperoning ability of α-crystallin disrupts the γ-crystallin aggregates. The α-A and α-B crystallins were each individually mixed with γD- or γS-crystallin in a molar ratio of 3:1, respectively, mimicking the ratio found in the human eye lens. All solutions were allowed to equilibrate for an hour at 4° C.

γ-crystallin [2] = experiment: Circular dichroism of modified γ-crystallin (secondary structure); assay type: biochemical; settings: 0.5 mg/mL, 22° C., versus native protein
Description: Crystallin samples were dialyzed overnight into 10 mM Na2HPO4/NaH2PO4 buffer pH 6.8 and measured at a concentration of 0.5 mg/mL. CD spectra were measured on a Jasco J715 spectropolarimeter at 22° C. using a quartz cell of 1 mm path length.

[3] = DLS of individual α-crystallin solutions (size in dilute solution); assay type: physicochemical; settings: individual protein solution
Description: as §2, §3, §4
Individual solutions of α-A, α-B, γD- and γ-S crystallin proteins were investigated to understand the size scale and how the proteins behave in dilute solution. (Table 1) Temperature had little effect on protein size in solution as measured by DLS.

[4] = slow mode (aggregate), 100 mM NaCl
[5] = slow mode (aggregate), 150 mM NaCl
[6] = slow mode (aggregate), 300 mM NaCl
[7] = fast mode (monomer, first Rh column), 22° C.
[8] = α-crystallin additive, molar ratio 3:1, one hour at 4° C.
[9] = slow mode, α-crystallin additive, molar ratio 3:1, one hour at 4° C.

Compound: O[C@@H](CS)[C@@H](O)CS [DTT, reference compound]
- Rhf (γD-crystallin; additive 5 mM DTT): 2.6 nm
- Rhs (γD-crystallin; slow mode, additive 5 mM DTT): 108 nm
- Rhf (γS-crystallin; additive 5 mM DTT): 3 nm
- Rhs (γS-crystallin; slow mode, additive 5 mM DTT): 102 nm
- effect on the size of the γ-crystallin aggregates (γ-crystallin [1]; 5 mM DTT): had no effect on the size of the γ-crystallin aggregates

Compound: [Cl-].[K+] [KCl]
- aggregate formation (γ-crystallin [1]; KCl concentrations 400 to 1000 mM): aggregate formation was effectively inhibited
- reduction in the size of γ-crystallin aggregates (γ-crystallin [1]; KCl concentrations of less than 300 nM (so in the source)): did not provide a reduction in the size of γ-crystallin aggregates
- reduction of γ-crystallin aggregates (γ-crystallin [1]; salt concentrations over 300 mm KCl (so in the source)): did reduce γ-crystallin aggregates to individual protein particles

Compound: [Cl-].[Na+] [NaCl]
- Rhf (γD-crystallin; 100 mM NaCl): 2.8 nm
- Rhf (γD-crystallin; 150 mM NaCl): 2.8 nm
- Rhf (γD-crystallin; 300 mM NaCl): 2.6 nm
- Rhf (γD-crystallin; 400 mM NaCl): 2.7 nm
- Rhf (γD-crystallin; 500 mM NaCl): 2.8 nm
- Rhf (γD-crystallin; 1000 mM NaCl): 2.5 nm
- Rhs (γD-crystallin; [4]): 108 nm
- Rhs (γD-crystallin; [5]): 104 nm
- Rhs (γD-crystallin; [6]): 91 nm
- Rhf (γS-crystallin; 100 mM NaCl): 2.7 nm
- Rhf (γS-crystallin; 150 mM NaCl): 2.7 nm
- Rhf (γS-crystallin; 300 mM NaCl): 2.9 nm
- Rhf (γS-crystallin; 400 mM NaCl): 2.6 nm
- Rhf (γS-crystallin; 500 mM NaCl): 2.5 nm
- Rhf (γS-crystallin; 1000 mM NaCl): 2.6 nm
- Rhs (γS-crystallin; [4]): 104 nm
- Rhs (γS-crystallin; [5]): 102 nm
- Rhs (γS-crystallin; [6]): 100 nm

Compound: CC(=O)O.O=C1CC(S(=O)(=O)O)C(=O)N1O (stereo not shown) [SA, sulfo-N-hydroxysuccinimide acetate]
- secondary structure of modified γ-crystallin (CD spectra) (γ-crystallin [2]): smaller well around 220 nm as compared to the native
- Rh (γD-crystallin; fast mode (monomer), 37° C.): 2.6 nm
- Rh (γD-crystallin; [7]): 2.5 nm
- Rh (γD-crystallin; slow mode (aggregate), 22° C.): 82.5 nm
- Rh (γD-crystallin; slow mode (aggregate), 37° C.): 85 nm
- Rh (γS-crystallin; fast mode (monomer), 37° C.): 2.5 nm
- Rh (γS-crystallin; [7]): 2.5 nm
- Rh (γS-crystallin; slow mode (aggregate), 22° C.): 92.5 nm
- Rh (γS-crystallin; slow mode (aggregate), 37° C.): 90 nm
- aggregation of γ-crystallin modified with the agent (DLS) (γ-crystallin [1]): did not prevent aggregation

Compound: Biotin
- secondary structure of modified γ-crystallin (CD spectra) (γ-crystallin [2]): showed a sizeable shift upwards as compared with the native structure of the protein
- Rh (γD-crystallin; fast mode (monomer), 37° C.): 2.7 nm
- Rh (γD-crystallin; [7]): 2.8 nm
- Rh (γD-crystallin; slow mode (aggregate), 22° C.): 150 nm
- Rh (γD-crystallin; slow mode (aggregate), 37° C.): 170 nm
- Rh (γS-crystallin; fast mode (monomer), 37° C.): 2.8 nm
- Rh (γS-crystallin; [7]): 2.6 nm
- Rh (γS-crystallin; slow mode (aggregate), 22° C.): 180 nm
- Rh (γS-crystallin; slow mode (aggregate), 37° C.): 210 nm
- aggregation of γ-crystallin modified with the agent (DLS) (γ-crystallin [1]): resulted in aggregation

Compound: PEG4
- secondary structure of modified γ-crystallin (CD spectra) (γ-crystallin [2]): did not significantly affect the secondary structures
- Rh (γD-crystallin; fast mode (monomer), 37° C.): 2.9 nm
- Rh (γD-crystallin; [7]): 2.8 nm
- Rh (γS-crystallin; fast mode (monomer), 37° C.): 2.9 nm
- Rh (γS-crystallin; [7]): 2.9 nm
- aggregation of γ-crystallin modified with the agent (DLS) (γ-crystallin [1]): showed no aggregation

Compound: αA: αA-crystallin, heat shock protein and molecular chaperone, 19.9 kDa
- Rh ([3]; 4°): 12 nm
- Rh ([3]; 22°): 12 nm
- Rh ([3]; 37°): 13 nm
- effect on the large γ-crystallin aggregate (γ-crystallin [1]): the large γ-crystallin aggregate of several hundred nanometers disappeared

Compound: αB: αB-crystallin, heat shock protein and molecular chaperone, 20.16 kDa
- Rhf (γD-crystallin; [8]): 3.2 nm
- Rhs (γD-crystallin; [9]): 17 nm
- Rhf (γS-crystallin; [8]): 3 nm
- Rhs (γS-crystallin; [9]): 19 nm
- Rh ([3]; 4°): 12 nm
- Rh ([3]; 22°): 13 nm
- Rh ([3]; 37°): 13 nm
- effect on the large γ-crystallin aggregate (γ-crystallin [1]): the large γ-crystallin aggregate of several hundred nanometers disappeared
